Here are results for 118 compounds from a melting point compilation (Tetko et al.).

Compound `Cc1nc(S)nc(O)c1CCO` returned a melting point of 263 to 265 °C.

For `O=C(O)Cn1ncc2ccccc21`, the melting point fell in the range of 188 to 190 °C.

For `O=C(O)c1ccc(-c2cccc3ccccc23)s1`, the melting point was 249 to 251 °C.

`C=CC(=O)Nc1ccc(OC)c(OC)c1` displayed a melting point of 102 to 104 °C.

`Cc1nn(C)c(C)c1C(C)C(=O)O` (stereo not drawn) registered a melting point of 119 to 121 °C.

`CC(C)Cn1cnnc1C1CCCN1` (stereo not drawn) returned a melting point of 54 to 56 °C.

The compound `CNC(=O)C1CNCCO1` (stereo not drawn) showed a melting point of 93 to 95 °C.

In turn, `CC(C)Oc1ccc(S(N)(=O)=O)c2ccccc12` came in with a melting point of 95 to 97 °C.

The compound `CCC(=CC(=O)O)c1cccc(Cl)c1` showed a melting point of 79 to 81 °C.

`O=c1[nH]nc2n1CCNC2` showed a melting point of 179 to 181 °C.

With `Nc1cccc(NC(=O)c2cccnc2)c1`, the melting point fell in the range of 155 to 157 °C.

As to `CCOc1ccc(S(=O)(=O)N(C)c2ccc(OCC(=O)O)cc2)cc1`, the melting point fell in the range of 82 to 84 °C.

Consider `Fc1ccc(NCc2cccnc2)c(F)c1`, for which the melting point fell in the range of 87 to 89 °C.

`N#Cc1ccc2ncc(C=O)n2c1`: the melting point fell in the range of 184 to 186 °C.

As to `CC(NC(=O)c1ccco1)C(=O)O` (stereo not drawn), the melting point is 100 to 102 °C.

Consider `O=C(O)C1=NN(c2ccc(Cl)cc2)C(=O)CC1`, for which the melting point is 161 to 163 °C.

`Cn1cc(Br)cc1C(=O)NC1CC1`: the melting point is 112 to 114 °C.

Take `COc1ccc(C(N)CC(=O)O)cc1` (stereo not drawn): the melting point lay within 237 to 239 °C.

Turning to `CCOC(=O)/C(C#N)=C\Nc1cc(OC)ccc1OC`, the melting point lay in the range of 131 to 133 °C.

In turn, `Nc1cc(-c2cccc([N+](=O)[O-])c2)n[nH]1` registered a melting point of 137 to 139 °C.

Regarding `O=C(O)c1ccc(OC2CCC2)cc1`, the melting point lay within 191 to 193 °C.

On to `Cc1[nH]c2ccc(Cl)cc2c1C(=O)O`, for which the melting point lay in the range of 193 to 195 °C.

The compound `CC(C)(C)c1ccc(SCC(=O)O)cc1` displayed a melting point of 65 to 67 °C.

The compound `CC(Cl)C(=O)NCc1ccccc1Cl` (stereo not drawn) showed a melting point of 88 to 90 °C.

In turn, `Cc1nc(N)sc1-c1ccccc1` yielded a melting point of 163 to 165 °C.

Regarding `O=C1CC(C2CC2)CN1` (stereo not drawn), the melting point lay in the range of 99 to 101 °C.

In turn, `O=Cc1cn(-c2ccccc2)nc1-c1cc2ccccc2o1` displayed a melting point of 176 to 178 °C.

Consider `O=C(O)c1cc([N+](=O)[O-])c(F)cc1Cl`, for which the melting point lay within 151 to 153 °C.

Regarding `COc1cccc(-c2nnn[nH]2)c1`, the melting point was 181 to 183 °C.

Take `Cc1ccc(C2(C)NC(=O)NC2=O)cc1` (stereo not drawn): the melting point was in the range of 207 to 209 °C.

`Cc1cc(C(=O)O)nn1-c1ccc(Cl)cc1Cl` had a melting point of 199 to 201 °C.

`Cc1cc(NC(=O)C(C)Cl)ccc1Br` (stereo not drawn) gave a melting point of 149 to 151 °C.

`CCCCNc1c(N)n(Cc2ccccc2)c(=O)[nH]c1=O` displayed a melting point of 117 to 119 °C.

`Nc1ccnn1Cc1ccncc1` gave a melting point of 219 to 221 °C.

On to `CCOC(=O)c1c(N)sc(C(=O)OCCOC)c1C`, for which the melting point was in the range of 118 to 120 °C.

In the case of `NC(=O)Nc1ccc([N+](=O)[O-])cc1`, the melting point fell in the range of 224 to 226 °C.

On to `Nc1cccc(C(=O)NCC(F)(F)F)c1`, for which the melting point lay in the range of 118 to 120 °C.

The compound `COC(=O)c1ccc(S(N)(=O)=O)c([N+](=O)[O-])c1` had a melting point of 139 to 141 °C.

`COC(=O)c1ccc(C)c(O)c1` showed a melting point of 119 to 121 °C.

For `Cc1ccc(-c2nn(Cc3ccccc3)cc2C(=O)O)cc1`, the melting point was 157 to 159 °C.

`O=C(O)c1cc(S(=O)(=O)NCc2ccccn2)c(Cl)cc1Cl` showed a melting point of 231 to 233 °C.

`N#Cc1ccnc(Oc2ccccc2Cl)c1` gave a melting point of 79 to 81 °C.

The compound `COC(=O)c1ccc(N)c(OCC(F)(F)F)c1` gave a melting point of 117 to 119 °C.

As to `Cc1c(N)cccc1COC1CCCCC1`, the melting point was in the range of 54 to 56 °C.

`O=C(CCl)NCCOc1ccc2c(c1)OCO2`: the melting point was in the range of 75 to 77 °C.

`CC(C)C(=O)Nc1cccc(O)c1` yielded a melting point of 179 to 181 °C.

As for `COC(=O)CCCNc1nc2ccccc2s1`, the melting point fell in the range of 114 to 116 °C.

Take `CC1CCCN(Cc2csc(N)n2)C1` (stereo not drawn): the melting point was 136 to 138 °C.

In turn, `COc1cc2[nH]nnc2cc1C(=O)O` registered a melting point of 219 to 221 °C.

The compound `O=C(CC1CCCCC1)Nc1cccc2c1NCCC2` registered a melting point of 179 to 181 °C.

For `Nc1ccc(Oc2cccc(F)c2)cc1`, the melting point was in the range of 72 to 74 °C.

As for `Cc1ccc(S(=O)(=O)OC2CCCC2c2ccccc2)cc1` (stereo not drawn), the melting point was in the range of 65 to 67 °C.

`Cc1cccc(CNCc2cccc(C)n2)n1` had a melting point of 44 to 46 °C.

On to `OCCc1cc2cc(Br)ccc2o1`, for which the melting point was 67 to 69 °C.

For `CCCCn1c(N)cc(=O)n(C)c1=O`, the melting point lay in the range of 92 to 94 °C.

As to `O=C(O)COc1ccc(Oc2ccccc2)cc1`, the melting point lay in the range of 127 to 129 °C.

`Clc1ncnc2c1CCC2` returned a melting point of 39 to 41 °C.

In turn, `O=C(O)CC(O)(c1ccccc1)C(F)(F)F` (stereo not drawn) displayed a melting point of 133 to 135 °C.

On to `O=C1C=CC(=O)N1c1cccc([N+](=O)[O-])c1`, for which the melting point fell in the range of 129 to 131 °C.

For the compound `Nc1cccc(NC(=O)c2cccs2)c1`, the melting point lay in the range of 134 to 136 °C.

On to `COC(=O)Cn1cnc(N)n1`, for which the melting point was in the range of 136 to 138 °C.

`COc1ccc(C(=O)C2CCOCC2)cc1` showed a melting point of 103 to 105 °C.

Regarding `O=C(O)C1CC1c1cccc(Cl)c1Cl` (stereo not drawn), the melting point lay within 124 to 126 °C.

Compound `NNC(=O)C1Cc2ccccc2O1` (stereo not drawn) gave a melting point of 150 to 152 °C.

For `COc1ccccc1-c1csc(=O)[nH]1`, the melting point was 127 to 129 °C.

On to `O=C(CCCl)Nc1ccccc1[N+](=O)[O-]`, for which the melting point lay within 86 to 88 °C.

In the case of `CCC(=CC(=O)O)c1ccc(OC)cc1`, the melting point is 130 to 132 °C.

Take `CC(=O)c1ccc(S(=O)(=O)Nc2ccc(C(=O)O)cc2)cc1`: the melting point lay in the range of 152 to 154 °C.

Regarding `CCc1cc(=O)[nH]c(-c2ccncc2)n1`, the melting point lay within 172 to 174 °C.

Take `Nc1ccc(F)c(N(S(=O)(=O)c2ccccc2)S(=O)(=O)c2ccccc2)c1`: the melting point lay within 159 to 161 °C.

`NS(=O)(=O)c1ccnc(Cl)c1` registered a melting point of 134 to 136 °C.

Consider `CCOC(=O)c1nnc2ccccc2c1Cl`, for which the melting point was in the range of 53 to 55 °C.

On to `O=C(O)CCc1nc(-c2ccc(F)cc2)no1`, for which the melting point fell in the range of 150 to 152 °C.

Compound `CN(C)S(=O)(=O)c1ccc(N2CCOCC2)c(C(=O)O)c1` yielded a melting point of 218 to 220 °C.

In the case of `COc1ncccc1C(N)=S`, the melting point was 114 to 116 °C.

Compound `O=c1[nH]cnc2c1cnn2-c1ccc(F)cc1` yielded a melting point of 243 to 246 °C.

In turn, `Cc1cc(C)nc(N)c1` came in with a melting point of 63 to 64 °C.

In the case of `Nc1cc(F)c(OC2CCCCC2)cc1C(=O)O`, the melting point was in the range of 159 to 161 °C.

For the compound `CS(=O)(=O)c1cc(S(N)(=O)=O)ccc1F`, the melting point lay in the range of 202 to 204 °C.

As to `NCc1ccccc1CN1C(=O)NC2(CCCCC2)C1=O`, the melting point lay in the range of 141 to 143 °C.

Turning to `O=C(O)Cc1ccc2c(c1)CCC2`, the melting point lay within 86 to 90 °C.

The compound `O=C(O)c1ccc(Cl)c(S(=O)(=O)Nc2ccccc2N2CCOCC2)c1` yielded a melting point of 178 to 180 °C.

In turn, `Cc1ccc(NC(=O)CC(N)=NO)cc1` yielded a melting point of 168 to 170 °C.

`Nc1cc(C(=O)O)ccc1Br` gave a melting point of 226 to 230 °C.

In the case of `O=c1[nH]c(CCl)nc2scc(-c3cccs3)c12`, the melting point fell in the range of 219 to 221 °C.

As to `O=C(O)c1ccc(S(=O)(=O)Nc2ccncc2)cc1`, the melting point lay within 297 to 299 °C.

As for `CCc1c(O)nc(S)n(-c2ccccc2C)c1=O`, the melting point was in the range of 178 to 180 °C.

In the case of `Nc1ccc2[nH]c(-c3ccccn3)nc2c1`, the melting point lay within 189 to 191 °C.

`Clc1nc(-c2cccnc2)nc2scc(-c3ccccc3)c12` returned a melting point of 155 to 157 °C.

`O=S(=O)(Cc1nc2ccccc2[nH]1)c1ccccc1` yielded a melting point of 215 to 217 °C.

With `O=C(CCl)Nc1ccc(-c2ccccc2)cc1`, the melting point lay in the range of 121 to 123 °C.

`Cc1oc(C(=O)O)cc1S(N)(=O)=O` displayed a melting point of 225 to 227 °C.

As for `Cc1occc1-c1nnc(S)n1N`, the melting point is 159 to 161 °C.

With `Cc1[nH]c(C2CCCN2)nc1-c1ccccc1` (stereo not drawn), the melting point lay within 164 to 166 °C.

Compound `Cc1ccc(-c2nn(-c3ccccc3Cl)cc2C(=O)O)cc1` showed a melting point of 257 to 259 °C.

Regarding `OCc1ccc2[nH]nnc2c1`, the melting point was in the range of 146 to 148 °C.

On to `CC(N)c1ccccc1NS(=O)(=O)c1cccs1` (stereo not drawn), for which the melting point fell in the range of 167 to 169 °C.

`CNC(C(N)=O)c1cccc(F)c1` (stereo not drawn) gave a melting point of 153 to 155 °C.

In the case of `Cc1cccc(C(=O)NC(C)C(=O)O)c1` (stereo not drawn), the melting point was in the range of 117 to 119 °C.

With `O=C(CCl)NCC(=O)Nc1ccc(F)c(F)c1F`, the melting point was in the range of 160 to 162 °C.

Consider `NS(=O)(=O)c1ccccc1-c1ccccc1`, for which the melting point lay in the range of 116 to 118 °C.

Compound `O=C(NC(c1nn[nH]n1)C1CC1)c1ccccc1` (stereo not drawn) came in with a melting point of 189 to 191 °C.

Compound `O=C(O)CCCNC(=O)c1cccnc1` yielded a melting point of 211 to 213 °C.

Consider `O=C(O)CCn1cc([N+](=O)[O-])cn1`, for which the melting point lay within 143 to 145 °C.

`CC(C)(C)OC(=O)NCCCC(N)=S`: the melting point fell in the range of 94 to 96 °C.

On to `O=Cc1ccc(-c2ccc(C(F)(F)F)cc2)s1`, for which the melting point was in the range of 124 to 126 °C.

`Oc1ccnc(C2CC2)n1` showed a melting point of 152 to 154 °C.

Compound `Cc1ccc(C=CC(=O)O)o1` gave a melting point of 118 to 120 °C.

Consider `Nc1cc(C(=O)O)nc2ccccc12`, for which the melting point is 276 to 278 °C.

In the case of `O=C(NC1CC1)c1ccc(Br)cc1`, the melting point is 151 to 153 °C.

Regarding `Nc1ccc(-c2nc3ccc(N)cc3[nH]2)cc1`, the melting point fell in the range of 234 to 236 °C.

Regarding `COc1ccc2c(=O)c(-c3ccccc3)c(C)oc2c1`, the melting point was 136 to 138 °C.

As to `CCN1C(=O)C(=O)c2ccc(Br)cc21`, the melting point is 118 to 120 °C.

With `Cc1ccc(N)cc1S(=O)(=O)NC(C)(C)C`, the melting point lay within 131 to 133 °C.

As to `CCCOc1ccc(C(=O)NN)cc1OC`, the melting point lay in the range of 146 to 148 °C.

In turn, `COC(=O)c1cc(NS(=O)(=O)c2cccs2)cc(NS(=O)(=O)c2cccs2)c1` registered a melting point of 251 to 253 °C.

Take `c1ccc2sc(NC3CCCCC3)nc2c1`: the melting point fell in the range of 100 to 102 °C.

`Cc1oc(-n2cccc2)c(C#N)c1C(=O)O` showed a melting point of 208 to 210 °C.

By melting point is commonly meant the temperature, or range, at which the solid turns liquid.
